In patent US9012489B2, “Phenyl-3-aza-bicyclo[3.1.0]hex-3-yl-methanones and the use thereof as medicament” (Boehringer Ingelheim International GmbH, priority 2011, dated 2015):

Target: T1, GlyT1 transporter (Homo sapiens, UniProt P48067)
T1 construct: endogenously expressing the GlyT1 transporter; host or cells: SK-N-MC human neuroblastoma cells
T1 sequence (P48067 1-706): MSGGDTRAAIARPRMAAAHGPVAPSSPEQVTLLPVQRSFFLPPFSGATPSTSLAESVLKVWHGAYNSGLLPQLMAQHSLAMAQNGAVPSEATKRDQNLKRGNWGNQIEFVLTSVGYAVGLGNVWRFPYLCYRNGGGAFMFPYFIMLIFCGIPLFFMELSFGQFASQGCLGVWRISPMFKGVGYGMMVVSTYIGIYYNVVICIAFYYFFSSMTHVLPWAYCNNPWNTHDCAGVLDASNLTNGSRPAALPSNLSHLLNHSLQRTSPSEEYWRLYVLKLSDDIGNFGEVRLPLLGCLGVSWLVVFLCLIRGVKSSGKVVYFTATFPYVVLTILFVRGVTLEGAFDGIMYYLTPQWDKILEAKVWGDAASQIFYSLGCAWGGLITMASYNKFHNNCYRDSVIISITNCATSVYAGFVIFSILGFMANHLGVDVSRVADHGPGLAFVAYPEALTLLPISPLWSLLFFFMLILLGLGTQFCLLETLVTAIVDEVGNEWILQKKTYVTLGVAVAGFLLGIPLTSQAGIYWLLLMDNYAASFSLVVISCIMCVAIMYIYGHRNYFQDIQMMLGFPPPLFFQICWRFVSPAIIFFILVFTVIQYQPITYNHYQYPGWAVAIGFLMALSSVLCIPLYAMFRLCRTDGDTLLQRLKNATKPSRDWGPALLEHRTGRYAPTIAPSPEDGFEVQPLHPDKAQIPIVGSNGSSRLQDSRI
Assay: GlyT1 assay: 3H-glycine uptake into SK-N-MC cells (Cytostar-T format)
Format: cell-based
Conditions: glycine uptake in human SK-N-MC cells endogenously expressing GlyT1; 500 nM glycine, 1% DMSO, signal recorded over 60 min
Source text: Cells expressing either endogenously the GlyT1 transporter like JAR cells (human placental choriocarcinoma cells; e.g. WO 2008/002583) or SK-N-MC cells (human neuroblastoma cells; Depoortere et al., 2005. Neuropsychopharmacology 30:1963-1985) or primary neurons or cells which have been transfected with a plasmid encoding the cDNA of a functional GlyT1 transporter and stably or transiently express GlyT1 (e.g. WO 2006/08200) can be used to monitor glycine uptake in cells. Different protocols for determination of the glycine uptake into the cells described above can be applied in order to identify and rank compounds which interfere with glycine uptake in the selected cell.
Compounds outlined in the examples below were characterized using human SK-N-MC cells (ATCC number HTB-10) endogenously expressing the GlyT1 transporter which is responsible for the uptake of glycine into these cells and the uptake of glycine into these cells is monitored using the Cytostar-T assay format (GE Healthcare, RPNQ0162) which is based on the radioactive glycine taken up by the cells and brought into proximity with the scintillant contained within the base of the plate. The radioactive decay is converted to a light signal based on the integration of the scintillation matrix into the assay plate. The uptake is recorded as kinetic and the slope of the measured counts over time is used to calculate IC50.
In detail, SK-N-MC cells are seeded into 96-well Cytostar-T assay plates at a density of 200,000 cells/well and grown for 16-18 hours to confluence in growth medium as recommended by ATCC. Before starting the assay, cells are washed once with HBSS (Hank's buffered salt solution; Sigma, H8264) cont. 5 mM alanine (referred in here as HBSS/Ala) and afterwards the following reagents are added: • 1. 80 μl/well HBSS/Ala • 2. 20 μl/well of HBSS/Ala containing 6× the concentration of compound in 6% DMSO • 3. approx. 5-10 min incubation • 4. 20 μl/well 3 μM glycine (^3H-glycine (Perkin Elmer, NET004001MC, specific activity: 52 Ci/mmol; diluted 1:1 with unlabelled glycine) in HBSS/Ala.
In the final assay, glycine concentration is 500 nM (250 nM derived from the ^3H-glycine Perkin Elmer, 250 nM unlabelled glycine), DMSO concentration is 1%.
The assay plate is immediately after addition of the ^3H-glycine placed into a Micro-Beta Counter (Perkin Elmer) and the signal is recorded over 60 min.
To calculate uptake, the slope in the linear range of the kinetics is determined using GraphPadPrism and for the different slopes at the selected concentrations IC50 are calculated by curve fitting using the software GraphPadPrism.
Maximal glycine uptake in every experiment is determined by incubation of SK-N-MC cells with substrate but without inhibitor. Unspecific uptake of glycine by the cells is determined by incubating the cells with substrate and a reference GlyT1 inhibitor e.g. 10 μM RG-1678 (Pinard et al., 2010, J. Med. Chem. 53(12):4603-14).
Compounds are diluted from 10 mM stocks and in general, for IC50 determination 8 compound concentrations are used.

Structure (SMILES)	IC50 [nM]
Cc1c(C23CC2CN(C(=O)c2cc(S(C)(=O)=O)ccc2O[C@@H](C)C(F)(F)F)C3)noc1C(F)(F)F (mixture of isomers) [Example 163]	16
C[C@@H](Oc1ccc(S(C)(=O)=O)cc1C(=O)N1CC2CC2(c2coc(C3CC3)n2)C1)C(F)(F)F (single isomer, unassigned) [Example 82]	782
C[C@H](Oc1ccc(S(C)(=O)=O)cc1C(=O)N1CC2CC2(c2noc(C3(C(F)(F)F)CC3)n2)C1)C(F)(F)F (single isomer, unassigned) [Example 66, [5-Methanesulfonyl-2-(2,2,2-trifluoro-1-methyl-ethoxy)-phenyl]-{1-[5-(1-trifluoromethyl-cyclopropyl)-[1,2,4]oxadiazol-3-yl]-3-aza-bicyclo[3.1.0]hex-3-yl}-methanone]	4
Cc1nc(C23CC2CN(C(=O)c2cc(S(C)(=O)=O)ccc2O[C@H](C)C(F)(F)F)C3)no1 (single isomer, unassigned) [Example 43, [5-Methanesulfonyl-2-(2,2,2-trifluoro-1-methyl-ethoxy)-phenyl]-[1-(5-methyl-[1,2,4]oxadiazol-3-yl)-3-aza-bicyclo[3.1.0]hex-3-yl]-methanone]	251
C[C@H](Oc1ccc(S(C)(=O)=O)cc1C(=O)N1CC2(C)CC2(c2noc(C(F)(F)F)n2)C1)C(F)(F)F (single isomer, unassigned) [Example 158, [5-Methanesulfonyl-2-(2,2,2-trifluoro-1-methyl-ethoxy)-phenyl]-[1-methyl-5-(5-trifluoromethyl-[1,2,4]oxadiazol-3-yl)-3-aza-bicyclo[3.1.0]hex-3-yl]-methanone]	85
C[C@H](Oc1ccc(S(C)(=O)=O)cc1C(=O)N1CC2CC2(c2coc(C3CC3)n2)C1)C(F)(F)F (mixture of isomers) [Example 80, [1-(2-Cyclopropyl-oxazol-4-yl)-3-aza-bicyclo[3.1.0]hex-3-yl]-[5-methanesulfonyl-2-((S)-2,2,2-trifluoro-1-methyl-ethoxy)-phenyl]-methanone]	3
C[C@H](Oc1ccc(S(C)(=O)=O)cc1C(=O)N1CC2CC2(c2nnc(C3CC3)o2)C1)C(F)(F)F (mixture of isomers) [Example 147, [1-(5-Cyclopropyl-[1,3,4]oxadiazol-2-yl)-3-aza-bicyclo[3.1.0]hex-3-yl]-[5-methanesulfonyl-2-(2,2,2-trifluoro-1-methyl-ethoxy)-phenyl]-methanone]	18
CCS(=O)(=O)c1ccc(O[C@H](C)C(F)(F)F)c(C(=O)N2CC3CC3(c3nccc(C(F)(F)F)n3)C2)c1 (single isomer, unassigned) [Example 77, [5-Ethanesulfonyl-2-(2,2,2-trifluoro-1-methyl-ethoxy)-phenyl]-[1-(4-trifluoromethyl-pyrimidin-2-yl)-3-aza-bicyclo[3.1.0]hex-3-yl]-methanone]	113
C[C@H](Oc1ccc(S(C)(=O)=O)cc1C(=O)N1CC2CC2(c2csc(C(F)(F)F)n2)C1)C(F)(F)F (single isomer, unassigned) [Example 27, [5-Methanesulfonyl-2-(2,2,2-trifluoro-1-methyl-ethoxy)-phenyl]-[1-(2-trifluoromethyl-thiazol-4-yl)-3-aza-bicyclo[3.1.0]hex-3-yl]-methanone]	5
C[C@@H](Oc1ccc(S(C)(=O)=O)cc1C(=O)N1CC2CC2(c2coc(C3CC3)n2)C1)C(F)(F)F (single isomer, unassigned) [Example 83]	3
Cc1conc1C12CC1CN(C(=O)c1cc(S(C)(=O)=O)ccc1O[C@@H](C)C(F)(F)F)C2 (mixture of isomers) [Example 108, [5-Methanesulfonyl-2-(2,2,2-trifluoro-1-methyl-ethoxy)-phenyl]-[1-(4-methyl-isoxazol-3-yl)-3-aza-bicyclo[3.1.0]hex-3-yl]-methanone]	10
C[C@H](Oc1ccc(S(C)(=O)=O)cc1C(=O)N1CC2CC2(c2noc(C3(C)COC3)n2)C1)C(F)(F)F (mixture of isomers) [Example 62, [5-Methanesulfonyl-2-(2,2,2-trifluoro-1-methyl-ethoxy)phenyl]-{1-[5-(3-methyl-oxetan-3-yl)-[1,2,4]oxadiazol-3-yl]-3-aza-bicyclo[3.1.0]hex-3-yl}-methanone]	10
Cc1c(C23CC2CN(C(=O)c2cc(S(C)(=O)=O)ccc2O[C@H](C)C(F)(F)F)C3)noc1C(F)(F)F (mixture of isomers) [Example 160]	8
Cc1nc(C23CC2CN(C(=O)c2cc(S(C)(=O)=O)ccc2O[C@@H](C)C(F)(F)F)C3)cs1 (mixture of isomers) [Example 25, [5-Methanesulfonyl-2-(2,2,2-trifluoro-1-methyl-ethoxy)-phenyl]-[1-(2-methyl-thiazol-4-yl)-3-aza-bicyclo[3.1.0]hex-3-yl]-methanone]	22
C[C@@H](Oc1ccc(S(C)(=O)=O)cc1C(=O)N1CC2CC2(c2cc(C(F)(F)F)on2)C1)C(F)(F)F (mixture of isomers) [Example 49, [5-Methanesulfonyl-2-(2,2,2-trifluoro-1-methyl-ethoxy)-phenyl]-[1-(5-trifluoromethyl-isoxazol-3-yl)-3-aza-bicyclo[3.1.0]hex-3-yl]-methanone]	19
C[C@@H](Oc1ccc(S(C)(=O)=O)cc1C(=O)N1CC2CC2(c2nccc(C(F)(F)F)n2)C1)C(F)(F)F (single isomer, unassigned) [Example 19, [5-Methanesulfonyl-2-(2,2,2-trifluoro-1-methyl-ethoxy)-phenyl]-[1-(4-trifluoromethyl-pyrimidin-2-yl)-3-aza-bicyclo[3.1.0]hex-3-yl]-methanone]	5
CCS(=O)(=O)c1ccc(O[C@@H](C)C(F)(F)F)c(C(=O)N2CC3CC3(c3nccc(C(F)(F)F)n3)C2)c1 (single isomer, unassigned) [Example 74, [5-Ethanesulfonyl-2-(2,2,2-trifluoro-1-methyl-ethoxy)-phenyl]-[1-(4-trifluoromethyl-pyrimidin-2-yl)-3-aza-bicyclo[3.1.0]hex-3-yl]-methanone]	4
C[C@H](Oc1ccc(S(C)(=O)=O)cc1C(=O)N1CC2CC2(c2nc(C(F)(F)F)co2)C1)C(F)(F)F (single isomer, unassigned) [Example 136, [5-Methanesulfonyl-2-(2,2,2-trifluoro-1-methyl-ethoxy)-phenyl]-[1-(4-trifluoromethyl-oxazol-2-yl)-3-aza-bicyclo[3.1.0]hex-3-yl]-methanone]	120
C[C@@H](Oc1ccc(S(C)(=O)=O)cc1C(=O)N1CC2CC2(c2noc(C(F)(F)F)n2)C1)C(F)(F)F (single isomer, unassigned) [Example 5, [5-Methanesulfonyl-2-(2,2,2-trifluoro-1-methyl-ethoxy)-phenyl]-[1-(5-trifluoromethyl-[1,2,4]oxadiazol-3-yl)-3-aza-bicyclo[3.1.0]hex-3-yl]-methanone]	1380
C[C@H](Oc1ccc(S(C)(=O)=O)cc1C(=O)N1CC2CC2(c2noc(C3CC(F)(F)C3)n2)C1)C(F)(F)F (single isomer, unassigned) [Example 59]	8
